Measured values reported in ChEMBL document CHEMBL1201862, “PubChem BioAssay data set” (2004).
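1) Cells in 96-well plates. 2) Compound, 48 h, 5 concentrations. 3) Linear interpolation between surrounding doses. 4) Unreached endpoint = highest concentration. GI50 is the concentration that inhibits growth by half.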 Activity calls are given as the source filed them. Rule as the data show it: active = GI50 up to about 1.1 µM and inactive = higher.

Columns and labels:
Assay in all cases: NCI tumour cell line growth inhibition, 48 h
A549 = system: A549
CAKI-1 = system: CAKI-1
HOP-62 = system: HOP-62
HOP-92 = system: HOP-92
HT-29 = system: HT-29
Hs-578T = system: Hs-578T
KM12 = system: KM12
LOX IMVI = system: LOX IMVI
MDA-MB-435 = system: MDA-MB-435
MOLT-4 = system: MOLT-4
NCI-H460 = system: NCI-H460
NCI/ADR-RES = system: NCI/ADR-RES
OVCAR-4 = system: OVCAR-4
OVCAR-5 = system: OVCAR-5
SK-MEL-2 = system: SK-MEL-2
SNB-75 = system: SNB-75
UACC-62 = system: UACC-62
NCI-H226 = system: NCI-H226

Measured: GI50

C=CCOc1ccc(C2c3c(n[nH]c3O)CC(C)(O)C2C(=O)OC)cc1OC (centres undefined)
inactive: A549 > 100 µM | CAKI-1 > 100 µM | HOP-62 > 100 µM | HOP-92 > 100 µM | HT-29 > 100 µM | Hs-578T > 100 µM | KM12 > 100 µM | LOX IMVI > 100 µM | MDA-MB-435 > 100 µM | MOLT-4 > 100 µM | NCI-H460 > 100 µM | NCI/ADR-RES > 100 µM | OVCAR-4 > 100 µM | OVCAR-5 > 100 µM | SK-MEL-2 > 100 µM | SNB-75 > 100 µM | UACC-62 > 100 µM

Cc1ccc(/C=C/C(=O)c2cc(CN(C)C)c(O)c(CN(C)C)c2)cc1
inactive: A549 18.8 µM | CAKI-1 20.7 µM | HOP-62 16.5 µM | HOP-92 31.9 µM | HT-29 13.7 µM | Hs-578T 29.8 µM | KM12 12.1 µM | LOX IMVI 6.65 µM | MDA-MB-435 21.4 µM | MOLT-4 16 µM | NCI-H226 22.5 µM | NCI-H460 12 µM | NCI/ADR-RES 25.4 µM | OVCAR-5 66.8 µM | SNB-75 24.4 µM

N=C(N)N/N=C/c1c(-c2ccc(Cl)c([N+](=O)[O-])c2)nc2sc(Cl)cn12
inactive: A549 2.47 µM | CAKI-1 2.34 µM | HOP-62 3.85 µM | HOP-92 1.67 µM | HT-29 2.36 µM | Hs-578T 2.33 µM | KM12 2.56 µM | LOX IMVI 2.44 µM | MDA-MB-435 2.25 µM | MOLT-4 1.63 µM | NCI-H226 41.4 µM | NCI-H460 2.7 µM | NCI/ADR-RES 46 µM | OVCAR-4 2.04 µM | OVCAR-5 4.17 µM | SK-MEL-2 1.69 µM | UACC-62 1.95 µM

O=C1NC(=S)NC(=O)C1=Cc1ccc(-c2ccccc2)cc1
inactive: A549 > 100 µM | CAKI-1 > 100 µM | HOP-62 > 100 µM | HOP-92 > 100 µM | HT-29 > 100 µM | Hs-578T 79.4 µM | KM12 > 100 µM | LOX IMVI 69.3 µM | MDA-MB-435 > 100 µM | MOLT-4 24.7 µM | NCI-H226 > 100 µM | NCI-H460 > 100 µM | NCI/ADR-RES 27.9 µM | OVCAR-4 > 100 µM | OVCAR-5 > 100 µM | SK-MEL-2 > 100 µM | UACC-62 > 100 µM

Cc1n[nH]c(=O)n1N=C(c1ccccc1)c1ccccc1
inactive: A549 > 100 µM | CAKI-1 > 100 µM | HOP-62 > 100 µM | HOP-92 > 100 µM | HT-29 > 100 µM | Hs-578T > 100 µM | KM12 > 100 µM | LOX IMVI > 100 µM | MDA-MB-435 > 100 µM | MOLT-4 > 100 µM | NCI-H226 > 100 µM | NCI-H460 > 100 µM | NCI/ADR-RES > 100 µM | OVCAR-4 > 100 µM | OVCAR-5 > 100 µM | SK-MEL-2 > 100 µM | UACC-62 > 100 µM

Cc1cc2c(cc1C)[n+]([O-])c(C(=O)N1CCN(c3ccc([N+](=O)[O-])cc3)CC1)c(C)[n+]2[O-]
inactive: A549 82.2 µM | CAKI-1 > 100 µM | HOP-62 12.8 µM | HOP-92 23.6 µM | HT-29 > 100 µM | Hs-578T 96.2 µM | KM12 > 100 µM | LOX IMVI 90.2 µM | MDA-MB-435 > 100 µM | MOLT-4 > 100 µM | NCI-H460 22.9 µM | NCI/ADR-RES > 100 µM | OVCAR-4 > 100 µM | OVCAR-5 62.8 µM | SK-MEL-2 38.5 µM | UACC-62 41.9 µM
